{"source": "patent US20190029252A1", "about": "“Use of Herbicide-tolerant Protein” (BEIJING DABEINONG TECHNOLOGY GROUP CO., LTD., priority 2016, published 2019)", "experiment_in_all_cases": "Tribenuron-methyl tolerance of maize plants, damage degree after spraying", "assay_type_in_all_cases": "in vivo", "key": {"[1]": {"test_system": "Zm chloroplastic ALT-3-02 maize plants", "settings": "72 g ai/ha (4-fold field concentration)", "protocol": "(§1) The damage degree caused by the herbicide was measured for each plant according to the plant growth status 3 days after spraying (3 DAT), 7 days after spraying (7 DAT), 14 days after spraying (14 DAT) and 21 days after spraying (21 DAT), respectively: considering a growth status equivalent to that of the untreated plants as having a damage degree of 0%; considering conditions of leaves being partially chlorotic and yellow but substantially not affecting the plant normal growth as having a damage degree of 50%; and considering the whole plant being purple and dying as having a damage degree of 100%. There were 2 strains in Zm cytoplasmic ALT-1-02 maize plants in total (S13 and S14), 2 strains in Zm chloroplastic ALT-1-02 maize plants in total (S15 and S16), 2 strains in Zm cytoplasmic ALT-2-02 maize plants in total (S17 and S18), 2 strains in Zm chloroplastic ALT-2-02 maize plants in total (S19 and S20), 2 strains in Zm cytoplasmic ALT-3-02 maize plants in total (S21 and S22), 2 strains in Zm chloroplastic ALT-3-02 maize plants in total (S23 and S24), and 1 strain in wild-type maize plants (CK2) in total; and 10-15 plants were selected from each strain and tested."}, "[2]": {"test_system": "wild-type maize plants (CK2)", "protocol": "as §1"}, "[3]": {"test_system": "Zm cytoplasmic ALT-1-02 maize plants", "settings": "72 g ai/ha (4-fold field concentration)", "protocol": "as §1"}, "[4]": {"test_system": "Zm cytoplasmic ALT-2-02 maize plants", "settings": "72 g ai/ha (4-fold field concentration)", "protocol": "as §1"}, "[5]": {"test_system": "Zm chloroplastic ALT-2-02 maize plants", "settings": "72 g ai/ha (4-fold field concentration)", "protocol": "as §1"}, "[6]": {"settings": "maize strain S23 (Zm chloroplastic ALT-3-02)"}, "[7]": {"settings": "maize strain S24 (Zm chloroplastic ALT-3-02)"}, "[8]": {"settings": "maize strain CK2 (wild-type), 72 g ai/ha (4-fold field concentration)"}, "[9]": {"settings": "maize strain S13 (Zm cytoplasmic ALT-1-02)"}, "[10]": {"settings": "maize strain S14 (Zm cytoplasmic ALT-1-02)"}, "[11]": {"settings": "maize strain S17 (Zm cytoplasmic ALT-2-02)"}, "[12]": {"settings": "maize strain S18 (Zm cytoplasmic ALT-2-02)"}, "[13]": {"settings": "maize strain S19 (Zm chloroplastic ALT-2-02)"}, "[14]": {"settings": "maize strain S20 (Zm chloroplastic ALT-2-02)"}}, "data": [{"smiles": "COC(=O)c1ccccc1S(=O)(=O)NC(=O)N(C)c1nc(C)nc(OC)n1", "note": "[tribenuron-methyl, methyl 2-[N-(4-methoxy-6-methyl-1,3,5-triazin-2-yl)-N-methylaminoformamidosulfonyl]benzoate]", "values": [{"measurement": "Average damage % 3DAT", "setting": "[1]; [6]", "value": 0, "unit": "%"}, {"measurement": "Average damage % 7DAT", "setting": "[1]; [6]", "value": 0, "unit": "%"}, {"measurement": "Average damage % 14DAT", "setting": "[1]; [6]", "value": 0, "unit": "%"}, {"measurement": "Average damage % 21DAT", "setting": "[1]; [6]", "value": 0, "unit": "%"}, {"measurement": "Average damage % 3DAT", "setting": "[1]; [7]", "value": 0, "unit": "%"}, {"measurement": "Average damage % 7DAT", "setting": "[1]; [7]", "value": 0, "unit": "%"}, {"measurement": "Average damage % 14DAT", "setting": "[1]; [7]", "value": 0, "unit": "%"}, {"measurement": "Average damage % 21DAT", "setting": "[1]; [7]", "value": 0, "unit": "%"}, {"measurement": "Average damage % 7DAT", "setting": "[2]; [8]", "value": 86, "unit": "%"}, {"measurement": "Average damage % 14DAT", "setting": "[2]; [8]", "value": 100, "unit": "%"}, {"measurement": "Average damage % 21DAT", "setting": "[2]; [8]", "value": 100, "unit": "%"}, {"measurement": "herbicide tolerance (in words)", "setting": "[2]; wild-type maize plants, 72 g ai/ha", "value": "not tolerant"}, {"measurement": "Average damage % 3DAT", "setting": "[3]; [9]", "value": 4, "unit": "%"}, {"measurement": "Average damage % 7DAT", "setting": "[3]; [9]", "value": 0, "unit": "%"}, {"measurement": "Average damage % 14DAT", "setting": "[3]; [9]", "value": 0, "unit": "%"}, {"measurement": "Average damage % 21DAT", "setting": "[3]; [9]", "value": 0, "unit": "%"}, {"measurement": "Average damage % 3DAT", "setting": "[3]; [10]", "value": 5, "unit": "%"}, {"measurement": "Average damage % 7DAT", "setting": "[3]; [10]", "value": 0, "unit": "%"}, {"measurement": "Average damage % 14DAT", "setting": "[3]; [10]", "value": 0, "unit": "%"}, {"measurement": "Average damage % 21DAT", "setting": "[3]; [10]", "value": 0, "unit": "%"}, {"measurement": "Average damage % 3DAT", "setting": "[4]; [11]", "value": 6, "unit": "%"}, {"measurement": "Average damage % 7DAT", "setting": "[4]; [11]", "value": 0, "unit": "%"}, {"measurement": "Average damage % 14DAT", "setting": "[4]; [11]", "value": 0, "unit": "%"}, {"measurement": "Average damage % 21DAT", "setting": "[4]; [11]", "value": 0, "unit": "%"}, {"measurement": "Average damage % 3DAT", "setting": "[4]; [12]", "value": 5, "unit": "%"}, {"measurement": "Average damage % 7DAT", "setting": "[4]; [12]", "value": 0, "unit": "%"}, {"measurement": "Average damage % 14DAT", "setting": "[4]; [12]", "value": 0, "unit": "%"}, {"measurement": "Average damage % 21DAT", "setting": "[4]; [12]", "value": 0, "unit": "%"}, {"measurement": "Average damage % 3DAT", "setting": "[5]; [13]", "value": 0, "unit": "%"}, {"measurement": "Average damage % 7DAT", "setting": "[5]; [13]", "value": 0, "unit": "%"}, {"measurement": "Average damage % 14DAT", "setting": "[5]; [13]", "value": 0, "unit": "%"}, {"measurement": "Average damage % 21DAT", "setting": "[5]; [13]", "value": 0, "unit": "%"}, {"measurement": "Average damage % 3DAT", "setting": "[5]; [14]", "value": 0, "unit": "%"}, {"measurement": "Average damage % 7DAT", "setting": "[5]; [14]", "value": 0, "unit": "%"}, {"measurement": "Average damage % 14DAT", "setting": "[5]; [14]", "value": 0, "unit": "%"}, {"measurement": "Average damage % 21DAT", "setting": "[5]; [14]", "value": 0, "unit": "%"}]}]}
